Target: T1, human liver glycogen phosphorylase a (HLGPa) (Homo sapiens, UniProt P06737)
T1 construct: creating a full-length cDNA fused at the 5′ end to codons for methionine-glycine-alanine-histidine; 6xHis tag (leader Met-Gly-Ala-His6-Gly-Gly) (N); made in house; host or cells: E. coli (bacterial expression plasmid pTXK1007LTev)
T1 sequence (P06737 2-847 limits assumed): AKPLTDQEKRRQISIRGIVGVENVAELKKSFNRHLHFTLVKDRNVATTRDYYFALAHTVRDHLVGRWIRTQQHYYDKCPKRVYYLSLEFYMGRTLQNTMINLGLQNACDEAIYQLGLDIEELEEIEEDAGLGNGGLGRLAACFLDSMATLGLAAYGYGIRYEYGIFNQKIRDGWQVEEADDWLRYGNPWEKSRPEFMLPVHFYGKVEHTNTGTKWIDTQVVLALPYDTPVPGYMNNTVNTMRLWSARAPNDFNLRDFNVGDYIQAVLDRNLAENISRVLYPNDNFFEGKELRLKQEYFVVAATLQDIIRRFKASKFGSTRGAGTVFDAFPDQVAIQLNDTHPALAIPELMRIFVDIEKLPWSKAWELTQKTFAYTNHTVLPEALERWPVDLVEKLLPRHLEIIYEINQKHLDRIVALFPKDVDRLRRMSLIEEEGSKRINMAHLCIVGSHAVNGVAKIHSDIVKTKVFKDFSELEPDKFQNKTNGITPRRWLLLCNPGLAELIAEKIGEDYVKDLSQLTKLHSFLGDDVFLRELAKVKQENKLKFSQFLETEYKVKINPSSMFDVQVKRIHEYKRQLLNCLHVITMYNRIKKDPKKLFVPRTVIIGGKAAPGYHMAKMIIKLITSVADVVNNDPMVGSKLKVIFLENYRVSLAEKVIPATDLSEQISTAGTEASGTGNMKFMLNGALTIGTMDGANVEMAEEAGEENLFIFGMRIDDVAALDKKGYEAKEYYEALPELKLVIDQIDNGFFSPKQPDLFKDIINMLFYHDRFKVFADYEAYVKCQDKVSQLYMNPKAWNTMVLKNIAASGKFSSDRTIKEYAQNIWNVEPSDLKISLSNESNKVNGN
Test: Human liver glycogen phosphorylase a enzymatic activity assay (coupled, fluorescent resorufin readout, with and without 10 mM glucose)
Format: biochemical

[1] = human liver glycogen phosphorylase a, table does not say whether with or without 10 mM glucose
[2] = human liver glycogen phosphorylase a enzymatic activity assay

| IC50 [1] [nM] | IC50 [2] [nM] | SMILES |
| --- | --- | --- |
| 9130 |  | COC(=O)[C@H](CC(N)=O)NC(=O)c1ccc(-c2ccc(OC)cc2)cc1NC(=O)Nc1c(C)cc(C)cc1C [Example 377, methyl N^2-{[4′-(methyloxy)-3-({[(2,4,6-trimethylphenyl)amino]carbonyl}amino)-4-biphenylyl]carbonyl}-L-asparaginate] |
| 100 |  | COc1ccc(-c2ccc(C(=O)N[C@@H](CC(N)=O)C(=O)O)c(NC(=O)Nc3c(C)cc(C)cc3C)c2)cc1 [Example 378, N^2-{[4′-(methyloxy)-3-({[(2,4,6-trimethylphenyl)amino]carbonyl}amino)-4-biphenylyl]carbonyl}-L-asparagine] |
| 84 |  | Cc1cc(C)c(NC(=O)Nc2cc(-c3ccc(F)c(F)c3)ccc2C(=O)N[C@@H](CCC(=O)O)C(=O)O)c(C)c1 [Example 379, N-{[3′,4′-difluoro-3-({[(2,4,6-trimethylphenyl)amino]carbonyl}amino)-4-biphenylyl]carbonyl}-L-glutamic acid] |
| 1990 |  | COc1ccc(-c2ccc(C(=O)O)c(NC(=O)Nc3c(C)cc(C)cc3C)c2)cc1 [Example 380, 4′-(methyloxy)-3-({[(2,4,6-trimethylphenyl)amino]carbonyl}amino)-4-biphenylcarboxylic acid] |
| 3420 |  | COc1ccc(-c2ccc(C(=O)O)c(NC(=O)Nc3c(Cl)cc(OC(F)(F)F)cc3Cl)c2)cc1 [Example 381, 3-{[({2,6-dichloro-4-[(trifluoromethyl)oxy]phenyl}amino)carbonyl]amino}-4′-(methyloxy)-4-biphenylcarboxylic acid] |
| 1170 |  | O=C(Nc1sc(-c2ccccc2)cc1C(=O)O)Nc1c(Cl)cccc1Cl [Example 382, 2-({[(2,6-dichlorophenyl)amino]carbonyl}amino)-5-phenyl-3-thiophenecarboxylic acid] |
| 2370 |  | COC(=O)[C@@H](NC(=O)c1cc(-c2ccccc2)sc1NC(=O)Nc1c(Cl)cccc1Cl)C1CCCCC1 [Example 383, methyl(2S)-cyclohexyl({[2-({[(2,6-dichlorophenyl)amino]carbonyl}amino)-5-phenyl-3-thienyl]carbonyl}amino)ethanoate] |
| 230 |  | O=C(Nc1sc(-c2ccccc2)cc1C(=O)N[C@H](C(=O)O)C1CCCCC1)Nc1c(Cl)cccc1Cl [Example 384, (2S)-cyclohexyl({[2-({[(2,6-dichlorophenyl)amino]carbonyl}amino)-5-phenyl-3-thienyl]carbonyl}amino)ethanoic acid] |
| 1140 |  | O=C(Nc1cc(-c2ccc(F)cc2)sc1C(=O)O)Nc1c(Cl)cccc1Cl [Example 385, 3-({[(2,6-dichlorophenyl)amino]carbonyl}amino)-5-(4-fluorophenyl)-2-thiophenecarboxylic acid] |
| 4300 |  | COC(=O)[C@@H](NC(=O)c1sc(-c2ccc(F)cc2)cc1NC(=O)Nc1c(Cl)cccc1Cl)C1CCCCC1 [Example 386, methyl(2S)-cyclohexyl({[3-({[(2,6-dichlorophenyl)amino]carbonyl}amino)-5-(4-fluorophenyl)-2-thienyl]carbonyl}amino)ethanoate] |
| 430 |  | O=C(Nc1cc(-c2ccc(F)cc2)sc1C(=O)N[C@H](C(=O)O)C1CCCCC1)Nc1c(Cl)cccc1Cl [Example 387, (2S)-cyclohexyl({[3-({[(2,6-dichlorophenyl)amino]carbonyl}amino)-5-(4-fluorophenyl)-2-thienyl]carbonyl}amino)ethanoic acid] |
| 19700 |  | Cc1cc(C(=O)O)c(NC(=O)Nc2c(Cl)cccc2Cl)s1 [Example 388, 2-({[(2,6-dichlorophenyl)amino]carbonyl}amino)-5-methyl-3-thiophenecarboxylic acid] |
| 15600 |  | COC(=O)[C@@H](NC(=O)c1cc(C)sc1NC(=O)Nc1c(Cl)cccc1Cl)C1CCCCC1 [Example 389, methyl(2S)-cyclohexyl({[2-({[(2,6-dichlorophenyl)amino]carbonyl}amino)-5-methyl-3-thienyl]carbonyl}amino)ethanoate] |
| 17500 |  | Cc1cc(C(=O)N[C@H](C(=O)O)C2CCCCC2)c(NC(=O)Nc2c(Cl)cccc2Cl)s1 [Example 390, (2S)-cyclohexyl({f[2-({[(2,6-dichlorophenyl)amino]carbonyl}amino)-5-methyl-3-thienyl]carbonyl}amino)ethanoic acid] |
| 6780 |  | O=C(Nc1sc(-c2ccccc2)cc1C(=O)O)Nc1c(Cl)cc(Cl)cc1Cl [Example 391, 5-phenyl-2-({[(2,4,6-trichlorophenyl)amino]carbonyl}amino)-3-thiophenecarboxylic acid] |
| 1320 |  | COC(=O)[C@@H](NC(=O)c1cc(-c2ccccc2)sc1NC(=O)Nc1c(Cl)cc(Cl)cc1Cl)C1CCCCC1 [Example 392, methyl(2S)-cyclohexyl({[5-phenyl-2-({[(2,4,6-trichlorophenyl)amino]carbonyl}amino)-3-thienyl]carbonyl}amino)ethanoate] |
| 19300 |  | CC(C)c1cc(C(=O)O)c(NC(=O)Nc2c(Cl)cccc2Cl)s1 [Example 394, 2-({[(2,6-dichlorophenyl)amino]carbonyl}amino)-5-(1-methylethyl)-3-thiophenecarboxylic acid] |
|  | 4490 | COC(=O)[C@@H](NC(=O)c1cc(C(C)C)sc1NC(=O)Nc1c(Cl)cccc1Cl)C1CCCCC1 [Example 395, methyl(2S)-cyclohexyl({[2-({[(2,6-dichlorophenyl)amino]carbonyl}amino)-5-(1-methylethyl)-3-thienyl]carbonyl}amino)ethanoate] |
|  | 14300 | O=C(Nc1sc(Cc2ccccc2)cc1C(=O)O)Nc1c(Cl)cccc1Cl [Example 397, 2-({[(2,6-dichlorophenyl)amino]carbonyl}amino)-5-(phenylmethyl)-3-thiophenecarboxylic acid] |
|  | 3060 | COC(=O)[C@@H](NC(=O)c1cc(Cc2ccccc2)sc1NC(=O)Nc1c(Cl)cccc1Cl)C1CCCCC1 [Example 398, methyl(2S)-cyclohexyl({[2-({[(2,6-dichlorophenyl)amino]carbonyl}amino)-5-(phenylmethyl)-3-thienyl]carbonyl}amino)ethanoate] |
|  | 6700 | O=C(Nc1sc(Cc2ccccc2)cc1C(=O)N[C@H](C(=O)O)C1CCCCC1)Nc1c(Cl)cccc1Cl [Example 399] |
|  | 1830 | O=C(Nc1cc(-c2ccncc2)sc1C(=O)O)Nc1c(Cl)cccc1Cl [Example 400, 3-({[(2,6-dichlorophenyl)amino]carbonyl}amino)-5-(4-pyridinyl)-2-thiophenecarboxylic acid] |
|  | 14900 | COC(=O)[C@@H](NC(=O)c1sc(-c2ccncc2)cc1NC(=O)Nc1c(Cl)cccc1Cl)C1CCCCC1 [Example 401, methyl(2S)-cyclohexyl({[3-({[(2,6-dichlorophenyl)amino]carbonyl}amino)-5-(4-pyridinyl)-2-thienyl]carbonyl}amino)ethanoate] |
|  | 4220 | O=C(Nc1cc(-c2cccnc2)sc1C(=O)O)Nc1c(Cl)cccc1Cl [Example 403, 3-({[(2,6-dichlorophenyl)amino]carbonyl}amino)-5-(3-pyridinyl)-2-thiophenecarboxylic acid] |
|  | 13200 | COC(=O)[C@@H](NC(=O)c1sc(-c2cccnc2)cc1NC(=O)Nc1c(Cl)cccc1Cl)C1CCCCC1 [Example 404, methyl(2S)-cyclohexyl({[3-({[(2,6-dichlorophenyl)amino]carbonyl}amino)-5-(3-pyridinyl)-2-thienyl]carbonyl}amino)ethanoate] |
|  | 230 | O=C(Nc1cc(-c2cccnc2)sc1C(=O)N[C@H](C(=O)O)C1CCCCC1)Nc1c(Cl)cccc1Cl [Example 405] |
|  | 1110 | N#Cc1ccc(-c2cc(NC(=O)Nc3c(Cl)cccc3Cl)c(C(=O)O)s2)cc1 [Example 406, 5-(4-cyanophenyl)-3-({[(2,6-dichlorophenyl)amino]carbonyl}amino)-2-thiophenecarboxylic acid] |
|  | 370 | N#Cc1ccc(-c2cc(NC(=O)Nc3c(Cl)cccc3Cl)c(C(=O)N[C@H](C(=O)O)C3CCCCC3)s2)cc1 [Example 407, (2S)-({[5-(4-cyanophenyl)-3-({[(2,6-dichlorophenyl)amino]carbonyl}amino)-2-thienyl]carbonyl}amino)(cyclohexyl)ethanoic acid] |
|  | 1150 | COc1ccc(-c2cc(NC(=O)Nc3c(Cl)cccc3Cl)c(C(=O)O)s2)cc1 [Example 408, 3-({[(2,6-dichlorophenyl)amino]carbonyl}amino)-5-[4-(methyloxy)phenyl]-2-thiophenecarboxylic acid] |
|  | 93 | COc1ccc(-c2cc(NC(=O)Nc3c(Cl)cccc3Cl)c(C(=O)N[C@H](C(=O)O)C3CCCCC3)s2)cc1 [Example 409, (2S)-cyclohexyl[({3-({[(2,6-dichlorophenyl)amino]carbonyl}amino)-5-[4-(methyloxy)phenyl]-2-thienyl}carbonyl)amino]ethanoic acid] |

Reference: patent US20070249670A1, “Glycogen Phosphorylase Inhibitor Compounds and Pharmaceutical Compositions Thereof” (SMITHKLINE BEECHAM CORPORATION, priority 2004, published 2007)
